Data taken from PubChem BioAssay AID248 (DTP/NCI, 2004).
Toxic doses and inconclusive results are not listed. Cut-off read from the data, not from the text of the source: active = T/C of 150% or more; inactive = T/C below 125%.

System: L1210 leukemia ip in BDF1 mice, survival T/C
Assay: NCI In Vivo Anticancer Drug Screen. Data for tumor model L1210 Leukemia (intraperitoneal) in B6D2F1 (BDF1) mice
Settings: endpoint: mean survival time, higher = longer survival
Method in brief: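 Tumor cells were implanted, animals were treated, and survival was followed. The result divides the treated measurement by the vehicle-control measurement.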

[1] = dose: 100.0 mg/kg/injection, schedule: Q01DX001 (ip), vehicle: saline
[2] = dose: 200.0 mg/kg/injection, schedule: Q01DX001 (ip), vehicle: saline
[3] = dose: 400.0 mg/kg/injection, schedule: Q01DX001 (ip), vehicle: saline
[4] = dose: 100.0 mg/kg/injection, schedule: Q01DX001 (ip), vehicle: carboxymethylcellulose (CMC)
[5] = dose: 200.0 mg/kg/injection, schedule: Q01DX001 (ip), vehicle: carboxymethylcellulose (CMC)
[6] = dose: 400.0 mg/kg/injection, schedule: Q01DX001 (ip), vehicle: carboxymethylcellulose (CMC)
[7] = dose: 100.0 mg/kg/injection, schedule: Q04DX003 (ip), vehicle: Klucel (hydroxypropylcellulose) (HPC)
[8] = dose: 200.0 mg/kg/injection, schedule: Q04DX003 (ip), vehicle: Klucel (hydroxypropylcellulose) (HPC)
[9] = dose: 400.0 mg/kg/injection, schedule: Q04DX003 (ip), vehicle: Klucel (hydroxypropylcellulose) (HPC)
[10] = dose: 100.0 mg/kg/injection, schedule: Q04DX003 (ip), vehicle: saline
[11] = dose: 200.0 mg/kg/injection, schedule: Q04DX003 (ip), vehicle: saline
[12] = dose: 400.0 mg/kg/injection, schedule: Q04DX003 (ip), vehicle: saline
[13] = dose: 100.0 mg/kg/injection, schedule: Q01DX009 (ip), vehicle: Klucel (hydroxypropylcellulose) (HPC)
[14] = dose: 200.0 mg/kg/injection, schedule: Q01DX009 (ip), vehicle: Klucel (hydroxypropylcellulose) (HPC)
[15] = dose: 400.0 mg/kg/injection, schedule: Q01DX009 (ip), vehicle: Klucel (hydroxypropylcellulose) (HPC)

Measured: T/C

ClCCN(CCCl)c1ccc(/C=C\c2ccnc3ccccc23)cc1
inactive: dose: 100.0 mg/kg/injection, schedule: Q01DX009 (ip), vehicle: carboxymethylcellulose (CMC) 88 % of control | dose: 100.0 mg/kg/injection, schedule: Q04DX003 (ip), vehicle: other 96 % of control | dose: 200.0 mg/kg/injection, schedule: Q01DX009 (ip), vehicle: other 90 % of control | dose: 200.0 mg/kg/injection, schedule: Q04DX003 (ip), vehicle: other 96 % of control | dose: 400.0 mg/kg/injection, schedule: Q04DX003 (ip), vehicle: other 98 % of control

CCCCC(=O)N/N=C/c1ccc(O)cc1O
inactive: [1] 97 % of control | [2] 92 % of control | [3] 94 % of control

O=S1(=O)C2C=CCC1C(Cl)CC2 (stereo unspecified)
inactive: dose: 12.5 mg/kg/injection, schedule: Q01DX001 (ip), vehicle: Klucel (hydroxypropylcellulose) (HPC) 97 % of control | dose: 12.5 mg/kg/injection, schedule: Q01DX009 (ip), vehicle: Klucel (hydroxypropylcellulose) (HPC) 92 % of control | dose: 25.0 mg/kg/injection, schedule: Q01DX001 (ip), vehicle: Klucel (hydroxypropylcellulose) (HPC) 95 % of control | dose: 25.0 mg/kg/injection, schedule: Q01DX009 (ip), vehicle: Klucel (hydroxypropylcellulose) (HPC) 89 % of control | dose: 50.0 mg/kg/injection, schedule: Q01DX001 (ip), vehicle: Klucel (hydroxypropylcellulose) (HPC) 93 % of control

Oc1ccc(/C=N/N2CCN(/N=C/c3ccc(O)cc3O)CC2)c(O)c1
inactive: [1] 97 % of control | [2] 94 % of control | [3] 100 % of control

Nc1cc(C(=O)Nc2ccc(S(=O)(=O)O)cc2)ccc1C(=O)Nc1ccc(S(=O)(=O)O)cc1
inactive: dose: 31.0 mg/kg/injection, schedule: Q01DX Z (ip), vehicle: water 87 % of control | dose: 62.5 mg/kg/injection, schedule: Q01DX Z (ip), vehicle: water 100 % of control | dose: 125.0 mg/kg/injection, schedule: Q01DX Z (ip), vehicle: water 97 % of control | dose: 250.0 mg/kg/injection, schedule: Q01DX Z (ip), vehicle: water 95 % of control | dose: 500.0 mg/kg/injection, schedule: Q01DX Z (ip), vehicle: water 97 % of control

C=CC1(C)CCC2C(=CCC3C(C)(C(=O)O)CCCC23C)C1 (stereo unspecified) (tested in a mixture with another compound)
inactive: [4] 104 % of control | [5] 95 % of control | [6] 95 % of control

Cl/N=C(/c1ccccc1)c1ccc(Cl)cc1
inactive: [7] 105 % of control | [8] 102 % of control | [9] 104 % of control

COc1ccc(N=Cc2ccc(Cl)cc2)cc1C(F)(F)F
inactive: [7] 98 % of control | [8] 89 % of control | [9] 104 % of control

CCOC(=O)c1ccc(NC(=O)Sc2cccc(C)c2)cc1
inactive: [7] 93 % of control | [8] 97 % of control | [9] 96 % of control

Nc1cccc2c1/C(=N/O)c1ccccc1-2
inactive: [4] 98 % of control | [5] 100 % of control | [6] 98 % of control

[Cl][Gd]([Cl])[Cl]
inactive: [10] 94 % of control | [11] 115 % of control | [12] 95 % of control

Cc1nc(N)cc(=O)[nH]1
inactive: dose: 100.0 mg/kg/injection, schedule: Q01DX009 (ip), vehicle: water 112 % of control | dose: 100.0 mg/kg/injection, schedule: Q04DX003 (ip), vehicle: water 97 % of control | dose: 200.0 mg/kg/injection, schedule: Q01DX009 (ip), vehicle: water 104 % of control | dose: 200.0 mg/kg/injection, schedule: Q04DX003 (ip), vehicle: water 97 % of control | dose: 400.0 mg/kg/injection, schedule: Q04DX003 (ip), vehicle: water 97 % of control

OCCOC1CCCCC=C1Br (stereo unspecified)
inactive: dose: 100.0 mg/kg/injection, schedule: Q04DX003 (ip), vehicle: saline with Tween-80 113 % of control | dose: 200.0 mg/kg/injection, schedule: Q04DX003 (ip), vehicle: saline with Tween-80 110 % of control | dose: 400.0 mg/kg/injection, schedule: Q04DX003 (ip), vehicle: saline with Tween-80 102 % of control

COC(=O)C(c1ccccc1)C1(O)CCN(Cc2ccccc2)CC1 (stereo unspecified)
inactive: dose: 75.0 mg/kg/injection, schedule: Q04DX003 (ip), vehicle: Klucel (hydroxypropylcellulose) (HPC) 98 % of control | dose: 150.0 mg/kg/injection, schedule: Q04DX003 (ip), vehicle: Klucel (hydroxypropylcellulose) (HPC) 101 % of control | dose: 300.0 mg/kg/injection, schedule: Q04DX003 (ip), vehicle: Klucel (hydroxypropylcellulose) (HPC) 90 % of control

Cc1nc(N)[nH]c(=O)c1CCCNc1ccc(/C=C/C2(CCl)OCCO2)cc1
inactive: dose: 50.0 mg/kg/injection, schedule: Q01DX Z (ip), vehicle: carboxymethylcellulose (CMC) 92 % of control | dose: 200.0 mg/kg/injection, schedule: Q01DX Z (ip), vehicle: carboxymethylcellulose (CMC) 97 % of control | dose: 400.0 mg/kg/injection, schedule: Q01DX Z (ip), vehicle: carboxymethylcellulose (CMC) 94 % of control

CCCn1c(C)nc2c1C(=O)c1ccccc1C2=O
inactive: [1] 94 % of control | [10] 86 % of control | [2] 98 % of control | [11] 88 % of control | [3] 103 % of control | [12] 91 % of control

COC(=O)C1CC(C(N)=O)CC1OC(C)=O (stereo unspecified)
inactive: [13] 100 % of control | [14] 93 % of control | [15] 98 % of control

COc1cc(C=Nc2cccc(C(F)(F)F)c2)ccc1O
inactive: [13] 95 % of control | [7] 102 % of control | [14] 86 % of control | [8] 98 % of control | [15] 101 % of control | [9] 104 % of control

CC(=O)OCC1OC(NC(=O)NCCCl)C(OC(C)=O)C(OC(C)=O)C1OC(C)=O (stereo unspecified)
inactive: dose: 100.0 mg/kg/injection, schedule: Q01DX001 (ip), vehicle: Klucel (hydroxypropylcellulose) (HPC) 101 % of control | dose: 200.0 mg/kg/injection, schedule: Q01DX001 (ip), vehicle: Klucel (hydroxypropylcellulose) (HPC) 104 % of control | dose: 400.0 mg/kg/injection, schedule: Q01DX001 (ip), vehicle: Klucel (hydroxypropylcellulose) (HPC) 104 % of control
